Assay results reported in ChEMBL document CHEMBL3044718, “Effect of phenolic compounds on growth and ligninolytic enzyme production in Botryosphaeria isolates” (2013).
Converted amounts (≈) assume the structure as drawn. The source made the active and inactive calls. The calls are words filed in the database; no cut-off is given here.

Tests used:
[1] = tested on: Botryosphaeria dothidea; experiment: Decrease in Botryosphaeria dothidea ligninolytic enzyme production assessed as pectinase activity using pectin as substrate at 1 mM measured at 28 degC after 4 days; format: functional, organism-based
[2] = tested on: Neofusicoccum ribis; experiment: Inhibition of Neofusicoccum ribis mycelium growth at 25 mM measured at 28 degC after 4 days; format: functional; conditions: 96 h, read-out: GI
[3] = tested on: Lasiodiplodia theobromae; experiment: Decrease in Lasiodiplodia theobromae ligninolytic enzyme production assessed as pectinase activity using pectin as substrate at 25 mM measured at 28 degC after 4 days; format: functional; conditions: 96 h
[4] = tested on: Neofusicoccum ribis; experiment: Decrease in Neofusicoccum ribis ligninolytic enzyme production assessed as pectinase activity using pectin as substrate measured at 28 degC after 4 days; format: functional, organism-based
[5] = tested on: Lasiodiplodia theobromae; experiment: Inhibition of Lasiodiplodia theobromae mycelium growth measured at 28 degC after 4 days; format: functional
[6] = tested on: Diplodia seriata; experiment: Inhibition of Diplodia seriata (Schwein.) Shoemaker mycelium growth measured at 28 degC after 4 days; format: functional
[7] = tested on: Botryosphaeria dothidea; experiment: Decrease in Botryosphaeria dothidea ligninolytic enzyme production assessed as laccase activity using ABTS as substrate measured at 28 degC after 4 days; format: functional, organism-based
[8] = tested on: Botryosphaeria dothidea; experiment: Decrease in Botryosphaeria dothidea ligninolytic enzyme production assessed as laccase activity using ABTS as substrate at 5 mM measured at 28 degC after 4 days; format: functional
[9] = tested on: Neofusicoccum ribis; experiment: Inhibition of Neofusicoccum ribis mycelium growth measured at 28 degC after 4 days; format: functional
[10] = tested on: Diplodia seriata; experiment: Decrease in Diplodia seriata (Schwein.) Shoemaker mycelium biomass production measured at 28 degC after 4 days by gravimetric analysis; format: functional
[11] = tested on: Botryosphaeria dothidea; experiment: Inhibition of Botryosphaeria dothidea mycelium growth at 25 mM measured at 28 degC after 4 days; format: functional; conditions: 96 h, read-out: GI
[12] = tested on: Botryosphaeria dothidea; experiment: Inhibition of Botryosphaeria dothidea mycelium growth measured at 28 degC after 4 days; format: functional
[13] = tested on: Lasiodiplodia theobromae; experiment: Inhibition of Lasiodiplodia theobromae mycelium growth at 25 mM measured at 28 degC after 4 days; format: functional; conditions: 96 h, read-out: GI
[14] = tested on: Diplodia seriata; experiment: Inhibition of Diplodia seriata (Schwein.) Shoemaker mycelium growth at 25 mM measured at 28 degC after 4 days; format: functional; conditions: 96 h, read-out: GI
[15] = tested on: Neofusicoccum ribis; experiment: Decrease in Neofusicoccum ribis mycelium biomass production at 25 mM measured at 28 degC after 4 days by gravimetric analysis; format: functional; conditions: 96 h
[16] = tested on: Lasiodiplodia theobromae; experiment: Decrease in Lasiodiplodia theobromae ligninolytic enzyme production assessed as laccase activity using ABTS as substrate at 1 mM measured at 28 degC after 4 days; format: functional; conditions: 96 h
[17] = tested on: Lasiodiplodia theobromae; experiment: Decrease in Lasiodiplodia theobromae mycelium biomass production measured at 28 degC after 4 days by gravimetric analysis; format: functional
[18] = tested on: Diplodia seriata; experiment: Decrease in Diplodia seriata (Schwein.) Shoemaker ligninolytic enzyme production assessed as pectinase activity using pectin as substrate at 1 mM measured at 28 degC after 4 days; format: functional, organism-based
[19] = tested on: Diplodia seriata; experiment: Inhibition of Diplodia seriata (Schwein.) Shoemaker mycelium growth at 10 mM measured at 28 degC after 4 days; format: functional, organism-based
[20] = tested on: Botryosphaeria dothidea; experiment: Inhibition of Botryosphaeria dothidea mycelium growth at 10 mM measured at 28 degC after 4 days; format: functional, organism-based
[21] = tested on: Phellinus tremulae; experiment: Inhibition of Phellinus tremulae mycelium growth; format: functional
[22] = tested on: Lasiodiplodia theobromae; experiment: Inhibition of Lasiodiplodia theobromae mycelium growth at 20 mM measured at 28 degC after 4 days; format: functional; conditions: 96 h, read-out: GI
[23] = tested on: Neofusicoccum ribis; experiment: Inhibition of Neofusicoccum ribis mycelium growth at 20 mM measured at 28 degC after 4 days; format: functional, organism-based
[24] = tested on: Botryosphaeria dothidea; experiment: Decrease in Botryosphaeria dothidea ligninolytic enzyme production assessed as laccase activity using ABTS as substrate at 25 mM measured at 28 degC after 4 days; format: functional; conditions: 96 h
[25] = tested on: Diplodia seriata; experiment: Inhibition of Diplodia seriata (Schwein.) Shoemaker mycelium growth at 15 mM measured at 28 degC after 4 days; format: functional, organism-based
[26] = tested on: Botryosphaeria dothidea; experiment: Inhibition of Botryosphaeria dothidea mycelium growth at 20 mM measured at 28 degC after 4 days; format: functional, organism-based
[27] = tested on: Botryosphaeria dothidea; experiment: Decrease in Botryosphaeria dothidea ligninolytic enzyme production assessed as laccase activity using ABTS as substrate at 1 mM measured at 28 degC after 4 days; format: functional
[28] = tested on: Neofusicoccum ribis; experiment: Decrease in Neofusicoccum ribis ligninolytic enzyme production assessed as laccase activity using ABTS as substrate at 1 mM measured at 28 degC after 4 days; format: functional; conditions: 96 h
[29] = tested on: Diplodia seriata; experiment: Decrease in Diplodia seriata (Schwein.) Shoemaker ligninolytic enzyme production assessed as laccase activity using ABTS as substrate at 1 mM measured at 28 degC after 4 days; format: functional; conditions: 96 h
[30] = tested on: Diplodia seriata; experiment: Decrease in Diplodia seriata (Schwein.) Shoemaker ligninolytic enzyme production assessed as pectinase activity using pectin as substrate at 15 mM measured at 28 degC after 4 days; format: functional, organism-based
[31] = tested on: Lasiodiplodia theobromae; experiment: Inhibition of Lasiodiplodia theobromae mycelium growth at 15 mM measured at 28 degC after 4 days; format: functional; conditions: 96 h, read-out: GI
[32] = tested on: Botryosphaeria dothidea; experiment: Decrease in Botryosphaeria dothidea ligninolytic enzyme production assessed as laccase activity using ABTS as substrate at 15 mM measured at 28 degC after 4 days; format: functional, organism-based
[33] = tested on: Neofusicoccum ribis; experiment: Inhibition of Neofusicoccum ribis mycelium growth at 15 mM measured at 28 degC after 4 days; format: functional, organism-based

Row | Structure (SMILES) | inhibition [1] | inhibition of growth at 25000 µM [2] | inhibition at 25000 µM [3] | inhibition [4] | MIC ([5]; 96 h) | MIC ([6]; 96 h) | inhibition [7] | MIC ([9]; 96 h) | inhibition (INH) [10] | MIC ([12]; 96 h) | inhibition of growth at 25000 µM [13] | inhibition at 25000 µM [15] | inhibition at 1000 µM [16] | inhibition (INH) [17] | growth inhibition (GI) [23] | growth inhibition (GI) [25] | other results
1 | COc1cccc(OC)c1C(=O)O [2,6-DIMETHOXYBENZOIC ACID] | inactive | 86% | 57% | inactive | 5 mM (≈ 911 µg/mL) | 5 mM (≈ 911 µg/mL) | Active | 5 mM (≈ 911 µg/mL) | 58% | 5 mM (≈ 911 µg/mL) | 62% | 50% | 58% | 58% |  |  | inhibition [8]: inactive; inhibition of growth at 25000 µM [11]: 95%; inhibition of growth at 25000 µM [14]: 95%
2 | O=C(O)c1ccccc1 [BENZOIC ACID] | inactive |  | 57% | inactive | 5 mM (≈ 611 µg/mL) | 5 mM (≈ 611 µg/mL) |  | 5 mM (≈ 611 µg/mL) |  | 5 mM (≈ 611 µg/mL) |  | 50% | 58% |  | Active |  | inhibition [18]: Active; growth inhibition (GI) [19]: Active; growth inhibition (GI) [20]: Active; MIC [21]: 800 µg/mL (≈ 6.55 mM); inhibition of growth at 20000 µM [22]: 100%; inhibition at 25000 µM [24]: 96%
3 | Oc1ccccc1O [CATECHOL] | inactive |  | 57% | inactive | 5 mM (≈ 551 µg/mL) | 5 mM (≈ 551 µg/mL) |  | 5 mM (≈ 551 µg/mL) | 58% | 5 mM (≈ 551 µg/mL) |  | 100% | 58% | 58% | Active | Active | growth inhibition (GI) [26]: Active; inhibition of growth at 20000 µM [22]: 100%
4 | O=C(O)/C=C/c1ccc(O)cc1 [COUMARIC ACID] | inactive | 81% | 57% | inactive | 5 mM (≈ 821 µg/mL) | 5 mM (≈ 821 µg/mL) | Active | 5 mM (≈ 821 µg/mL) | 58% | 5 mM (≈ 821 µg/mL) | 100% |  | 71% | 58% |  |  | inhibition at 1000 µM ([27]; 96 h): 71%; growth inhibition (GI) [19]: Active; growth inhibition (GI) [20]: Active; inhibition at 1000 µM [28]: 71%; inhibition at 1000 µM [29]: 71%
5 | COc1cc(/C=C/C(=O)O)ccc1O [FERULATE] | inactive | 74% | 57% | inactive | 5 mM (≈ 971 µg/mL) | 5 mM (≈ 971 µg/mL) | Active | 5 mM (≈ 971 µg/mL) | 58% | 5 mM (≈ 971 µg/mL) | 81% |  | 82% | 58% |  | Active | inhibition at 5000 µM ([8]; 96 h): 90%; inhibition at 1000 µM [28]: 82%
6 | COc1ccccc1O [GUAIACOL] |  |  | 57% | inactive | 5 mM (≈ 621 µg/mL) | 5 mM (≈ 621 µg/mL) | Active | 5 mM (≈ 621 µg/mL) | 58% | 5 mM (≈ 621 µg/mL) |  |  | 58% | 58% | Active | Active | inhibition [27]: inactive; inhibition [30]: Active; inhibition of growth at 15000 µM [31]: 100%
7 | O=C(O)c1ccccc1O [SALICYLIC ACID] | inactive |  | 57% | inactive | 5 mM (≈ 691 µg/mL) | 5 mM (≈ 691 µg/mL) | Active | 5 mM (≈ 691 µg/mL) | 58% | 5 mM (≈ 691 µg/mL) | 100% | 50% | 58% | 58% | Active | Active | inhibition [32]: Active
8 | COc1cc(C(=O)O)cc(OC)c1O [SYRINGIC ACID] | inactive |  | 57% | inactive |  |  |  |  |  |  |  |  | 58% |  |  |  | inhibition [18]: Active; MIC [5]: inactive; MIC [6]: inactive; MIC [9]: inactive; inhibition [10]: inactive; MIC [12]: inactive; inhibition [17]: inactive
9 | COc1cccc(OC)c1O [SYRINGOL] | inactive |  | 57% | inactive | 5 mM (≈ 771 µg/mL) | 5 mM (≈ 771 µg/mL) | Active | 5 mM (≈ 771 µg/mL) | 58% | 5 mM (≈ 771 µg/mL) |  | 50% | 58% | 58% |  | Active | inhibition of growth at 15000 µM [31]: 100%; growth inhibition (GI) [26]: Active; growth inhibition (GI) [33]: Active
10 | COc1cc(C(=O)O)ccc1O [VANILLIC ACID] | inactive | 83% | 57% | inactive | 5 mM (≈ 841 µg/mL) | 5 mM (≈ 841 µg/mL) | Active | 5 mM (≈ 841 µg/mL) | 58% | 5 mM (≈ 841 µg/mL) | 52% | 50% | 58% | 58% |  | Active | inhibition [8]: inactive; inhibition of growth at 25000 µM [11]: 93%; inhibition [32]: Active
